Common to all, as to assay type: binding
Test [1] concerns the target T1, HeLa cell extract proteins (Homo sapiens, UniProt P05165).
T1 construct: endogenous in cells; host or cells: HeLa cell extract
T1 sequence (P05165 53-728): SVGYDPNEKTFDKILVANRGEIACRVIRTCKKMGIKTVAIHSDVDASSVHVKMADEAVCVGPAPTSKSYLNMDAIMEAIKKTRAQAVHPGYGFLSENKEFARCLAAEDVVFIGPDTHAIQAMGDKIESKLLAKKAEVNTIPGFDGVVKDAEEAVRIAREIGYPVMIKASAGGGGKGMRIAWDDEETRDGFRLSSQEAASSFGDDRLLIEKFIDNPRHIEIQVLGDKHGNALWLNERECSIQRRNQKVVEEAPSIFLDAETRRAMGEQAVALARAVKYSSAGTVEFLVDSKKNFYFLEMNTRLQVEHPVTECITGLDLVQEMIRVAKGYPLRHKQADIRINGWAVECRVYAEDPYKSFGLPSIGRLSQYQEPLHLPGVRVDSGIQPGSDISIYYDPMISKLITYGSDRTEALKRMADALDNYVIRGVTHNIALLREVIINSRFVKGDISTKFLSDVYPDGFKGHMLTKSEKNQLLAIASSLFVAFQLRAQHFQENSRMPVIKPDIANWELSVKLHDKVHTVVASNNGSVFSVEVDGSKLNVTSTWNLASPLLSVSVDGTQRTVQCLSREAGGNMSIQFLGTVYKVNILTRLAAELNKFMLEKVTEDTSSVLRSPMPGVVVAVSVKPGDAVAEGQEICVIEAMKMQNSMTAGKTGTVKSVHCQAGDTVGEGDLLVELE

Test [2] has as its target T2, HeLa cell extract proteins (Homo sapiens, UniProt P13798).
T2 construct: endogenous in cells; host or cells: HeLa cell extract
T2 sequence (P13798 1-732): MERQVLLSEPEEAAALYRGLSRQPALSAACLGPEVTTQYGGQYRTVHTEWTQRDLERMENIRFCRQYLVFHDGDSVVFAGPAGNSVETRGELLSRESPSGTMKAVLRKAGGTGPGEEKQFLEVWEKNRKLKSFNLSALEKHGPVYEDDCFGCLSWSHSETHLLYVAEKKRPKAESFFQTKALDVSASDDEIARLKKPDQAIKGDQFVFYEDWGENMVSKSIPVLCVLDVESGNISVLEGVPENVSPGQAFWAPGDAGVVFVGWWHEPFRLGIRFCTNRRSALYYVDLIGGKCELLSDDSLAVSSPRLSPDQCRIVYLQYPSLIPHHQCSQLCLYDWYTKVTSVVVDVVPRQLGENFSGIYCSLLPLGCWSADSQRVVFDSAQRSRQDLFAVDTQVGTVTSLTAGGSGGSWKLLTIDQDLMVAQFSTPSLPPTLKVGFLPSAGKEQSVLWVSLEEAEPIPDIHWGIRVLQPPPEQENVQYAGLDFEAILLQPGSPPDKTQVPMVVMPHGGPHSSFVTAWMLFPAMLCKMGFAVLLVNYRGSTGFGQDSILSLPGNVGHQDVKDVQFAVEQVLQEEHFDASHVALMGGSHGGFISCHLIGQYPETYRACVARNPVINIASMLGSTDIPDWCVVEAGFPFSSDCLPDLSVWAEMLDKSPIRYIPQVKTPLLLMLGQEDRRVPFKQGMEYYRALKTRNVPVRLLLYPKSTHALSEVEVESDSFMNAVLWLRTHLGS

For test [3], the target named is T3, HeLa cell extract proteins (Homo sapiens, UniProt P30040).
T3 construct: endogenous in cells; host or cells: HeLa cell extract

For test [4], the target named is T4, HeLa cell extract proteins (Homo sapiens, UniProt P31949).
T4 construct: endogenous in cells; host or cells: HeLa cell extract
T4 sequence (P31949 1-105): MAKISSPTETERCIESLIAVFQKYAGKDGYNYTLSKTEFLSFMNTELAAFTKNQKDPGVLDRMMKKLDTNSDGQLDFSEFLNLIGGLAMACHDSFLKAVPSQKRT

Test [5] deals with T5, HeLa cell extract proteins (Homo sapiens, UniProt P40616).
T5 construct: endogenous in cells; host or cells: HeLa cell extract
T5 sequence (P40616 1-181): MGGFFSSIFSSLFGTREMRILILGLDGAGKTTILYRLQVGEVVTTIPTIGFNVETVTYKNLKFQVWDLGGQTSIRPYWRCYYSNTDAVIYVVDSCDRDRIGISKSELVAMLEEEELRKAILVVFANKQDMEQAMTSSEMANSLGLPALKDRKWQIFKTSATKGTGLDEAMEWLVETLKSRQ

Test [6] concerns the target T6, HeLa cell extract proteins (Homo sapiens, UniProt P62633).
T6 construct: endogenous in cells; host or cells: HeLa cell extract

The target in test [7] is T7, HeLa cell extract proteins (Homo sapiens, UniProt Q14258).
T7 construct: endogenous in cells; host or cells: HeLa cell extract
T7 sequence (Q14258 whole entry): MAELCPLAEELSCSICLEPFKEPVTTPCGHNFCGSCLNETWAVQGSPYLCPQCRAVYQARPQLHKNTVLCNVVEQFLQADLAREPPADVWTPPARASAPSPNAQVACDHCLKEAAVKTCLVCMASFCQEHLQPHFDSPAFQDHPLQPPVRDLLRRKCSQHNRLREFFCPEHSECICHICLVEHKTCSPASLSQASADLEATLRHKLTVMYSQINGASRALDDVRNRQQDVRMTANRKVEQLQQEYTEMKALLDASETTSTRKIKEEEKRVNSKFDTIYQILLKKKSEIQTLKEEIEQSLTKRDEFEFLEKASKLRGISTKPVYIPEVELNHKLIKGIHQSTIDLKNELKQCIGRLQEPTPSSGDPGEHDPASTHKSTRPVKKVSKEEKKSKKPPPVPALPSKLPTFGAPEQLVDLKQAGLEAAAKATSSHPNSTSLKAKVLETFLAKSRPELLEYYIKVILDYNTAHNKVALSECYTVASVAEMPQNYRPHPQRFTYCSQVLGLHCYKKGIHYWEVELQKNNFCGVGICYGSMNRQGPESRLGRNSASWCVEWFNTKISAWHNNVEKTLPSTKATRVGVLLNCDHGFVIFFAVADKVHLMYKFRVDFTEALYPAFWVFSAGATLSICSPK

The target of test [8] is T8, HeLa cell extract proteins (Homo sapiens, UniProt Q6YHU6).
T8 construct: endogenous in cells; host or cells: HeLa cell extract
T8 sequence (Q6YHU6 whole entry): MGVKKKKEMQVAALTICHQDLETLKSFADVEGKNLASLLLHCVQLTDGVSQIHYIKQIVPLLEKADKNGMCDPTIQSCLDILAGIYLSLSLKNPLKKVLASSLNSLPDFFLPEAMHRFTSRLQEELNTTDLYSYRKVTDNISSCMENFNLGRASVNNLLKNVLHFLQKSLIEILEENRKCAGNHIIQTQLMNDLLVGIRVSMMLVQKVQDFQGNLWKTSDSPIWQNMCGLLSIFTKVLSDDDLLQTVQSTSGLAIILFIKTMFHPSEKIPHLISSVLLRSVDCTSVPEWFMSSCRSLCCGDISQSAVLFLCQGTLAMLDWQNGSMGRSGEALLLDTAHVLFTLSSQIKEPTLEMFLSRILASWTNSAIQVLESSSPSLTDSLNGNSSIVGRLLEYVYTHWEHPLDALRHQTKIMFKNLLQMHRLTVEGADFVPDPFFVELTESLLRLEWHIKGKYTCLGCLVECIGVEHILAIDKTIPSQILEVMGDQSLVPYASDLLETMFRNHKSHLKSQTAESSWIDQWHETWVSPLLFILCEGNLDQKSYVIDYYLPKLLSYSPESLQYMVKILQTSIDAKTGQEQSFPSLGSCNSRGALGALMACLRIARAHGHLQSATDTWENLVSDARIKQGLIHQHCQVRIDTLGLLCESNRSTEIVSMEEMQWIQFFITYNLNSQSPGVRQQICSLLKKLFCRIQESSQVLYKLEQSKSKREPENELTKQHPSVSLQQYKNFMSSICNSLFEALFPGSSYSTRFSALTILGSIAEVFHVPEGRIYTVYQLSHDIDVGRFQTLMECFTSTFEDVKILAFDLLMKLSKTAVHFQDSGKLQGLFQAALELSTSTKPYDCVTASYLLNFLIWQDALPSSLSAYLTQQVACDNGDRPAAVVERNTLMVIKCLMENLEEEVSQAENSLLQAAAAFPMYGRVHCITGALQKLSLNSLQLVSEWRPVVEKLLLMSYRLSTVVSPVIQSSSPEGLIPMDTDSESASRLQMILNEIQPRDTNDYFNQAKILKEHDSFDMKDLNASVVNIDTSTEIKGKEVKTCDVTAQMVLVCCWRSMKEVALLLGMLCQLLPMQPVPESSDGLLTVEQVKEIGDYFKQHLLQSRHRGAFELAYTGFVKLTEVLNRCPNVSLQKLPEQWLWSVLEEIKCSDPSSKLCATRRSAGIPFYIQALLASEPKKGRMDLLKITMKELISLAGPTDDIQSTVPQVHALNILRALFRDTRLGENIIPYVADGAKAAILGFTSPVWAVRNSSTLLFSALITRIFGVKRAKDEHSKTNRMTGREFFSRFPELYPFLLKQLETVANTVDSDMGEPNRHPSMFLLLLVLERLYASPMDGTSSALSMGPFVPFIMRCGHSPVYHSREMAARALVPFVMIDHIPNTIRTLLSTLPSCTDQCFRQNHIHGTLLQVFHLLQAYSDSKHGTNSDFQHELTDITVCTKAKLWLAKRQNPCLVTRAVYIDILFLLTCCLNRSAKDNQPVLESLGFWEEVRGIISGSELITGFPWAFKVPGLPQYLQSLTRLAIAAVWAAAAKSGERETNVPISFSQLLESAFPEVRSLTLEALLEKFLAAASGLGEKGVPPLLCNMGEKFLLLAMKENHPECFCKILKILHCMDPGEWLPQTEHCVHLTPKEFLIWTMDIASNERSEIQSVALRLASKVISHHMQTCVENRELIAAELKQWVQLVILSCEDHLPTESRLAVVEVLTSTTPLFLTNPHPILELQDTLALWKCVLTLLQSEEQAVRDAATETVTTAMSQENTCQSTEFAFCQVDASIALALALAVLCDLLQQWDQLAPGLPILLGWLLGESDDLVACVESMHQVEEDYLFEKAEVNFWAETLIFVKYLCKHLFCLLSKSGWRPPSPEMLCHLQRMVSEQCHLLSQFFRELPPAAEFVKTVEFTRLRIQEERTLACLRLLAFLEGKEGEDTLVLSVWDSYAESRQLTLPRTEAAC

Test [9] has as its target T9, HeLa cell extract proteins (Homo sapiens, UniProt Q96CN7).
T9 construct: endogenous in cells; host or cells: HeLa cell extract
T9 sequence (Q96CN7 1-298): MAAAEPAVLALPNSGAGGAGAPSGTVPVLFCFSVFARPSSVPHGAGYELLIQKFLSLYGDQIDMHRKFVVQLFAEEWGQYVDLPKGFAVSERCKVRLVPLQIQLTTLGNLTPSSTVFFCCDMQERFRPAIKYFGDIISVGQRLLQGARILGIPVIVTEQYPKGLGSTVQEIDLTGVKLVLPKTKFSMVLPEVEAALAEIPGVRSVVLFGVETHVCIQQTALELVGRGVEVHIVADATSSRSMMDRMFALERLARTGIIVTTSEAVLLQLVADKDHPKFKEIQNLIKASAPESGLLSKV

The mark [10] stands for this setting: HeLa, protein S100A11 (PROTEIN S100-A11.).
The mark [11] stands for this setting: HeLa, protein PCCA (80 KDA PROTEIN).
Setting [12] is: HeLa, protein APEH (ACYLAMINO-ACID-RELEASING ENZYME).

SMILES strings stand for the structures. Read-outs that look alike come from different tables or passages of the source.

T6 sequence (P62633 whole entry): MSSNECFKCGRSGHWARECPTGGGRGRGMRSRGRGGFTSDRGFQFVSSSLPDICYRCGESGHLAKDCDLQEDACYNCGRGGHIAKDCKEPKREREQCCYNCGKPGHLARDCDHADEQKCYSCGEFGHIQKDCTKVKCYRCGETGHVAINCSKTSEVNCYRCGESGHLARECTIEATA

`CCCCCCOc1cccc(Cc2cnc(N)nc2N)c1` [compound 2]: the “fold changes relative to vehicle control” value is recorded as 0.99 in test [1] (captured protein PCCA, HeLa); 0.91 in [2] (HeLa, protein APEH); 1.77 in test [3] (protein ERP29, HeLa); 2.47 fold in test [4] (setting [10]); 1.09 in test [5] (captured protein ARL1, HeLa); 1.8 in test [6] (protein CNBP, HeLa). The “fold changes relative to vehicle control” value in [7] (HeLa, protein TRIM25) is 1.07; in test [8] (captured protein THADA, HeLa), 1.16; in test [9] (protein ISOC1, HeLa), 1.01.
With `NCCOCCOCC(=O)Nc1nc2ncc(CNc3ccc(C(=O)NC(CCC(=O)O)C(=O)O)cc3)nc2c(=O)[nH]1` (stereo not drawn) [compound 6], the “fold changes relative to vehicle control” value is on record as 0.98 in [1] (setting [11]); 0.91 in test [2] (setting [12]); 1.24 in test [3] (protein ERP29, HeLa); 1.59 in test [4] (HeLa, protein S100A11); 0.9 in [5] (protein ARL1, HeLa); 1.3 in test [6] (HeLa, captured protein CNBP). Further, the “fold changes relative to vehicle control” value is recorded as 0.98 in test [7] (HeLa, captured protein TRIM25); 1.11 in [8] (HeLa, captured protein THADA); 1.11 in [9] (HeLa, captured protein ISOC1).
Take `CCCCCCOc1ccc(Cc2cnc(N)nc2N)cc1` [compound 1]: the “fold changes relative to vehicle control” value came to 1.07 in [1] (captured protein PCCA, HeLa); 0.96 in [2] (HeLa, protein APEH); 1.29 in test [3] (protein ERP29, HeLa); 1.66 fold in test [4] (setting [10]); 0.95 in [5] (captured protein ARL1, HeLa); 1.26 in test [6] (protein CNBP, HeLa). Further, the “fold changes relative to vehicle control” value in test [7] (HeLa, protein TRIM25) turned out to be 0.9; in test [8] (captured protein THADA, HeLa), 1.06; in [9] (protein ISOC1, HeLa) it was 1.08.
On to `Nc1nc2c(c(=O)[nH]1)N(C=O)C(CNc1ccc(C(=O)N[C@@H](CCC(=O)O)C(=O)O)cc1)CN2` (stereo partly drawn) [LEU, leucovorin], for which the “fold changes relative to vehicle control” value was 1.07 in [1] (setting [11]); 1.08 in [2] (setting [12]); 0.97 in [3] (protein ERP29, HeLa); 1.32 in test [4] (HeLa, protein S100A11); 0.8 in test [5] (protein ARL1, HeLa); 0.98 in [6] (HeLa, captured protein CNBP). Moreover, the “fold changes relative to vehicle control” value in test [7] (HeLa, captured protein TRIM25) was determined as 0.98; in [8] (HeLa, captured protein THADA), 1.06; in test [9] (HeLa, captured protein ISOC1), 1.09.
Regarding `NCCCNc1ccc(C(=O)NC(CCC(=O)O)C(=O)O)cc1` (stereo not drawn) [compound 7], the “fold changes relative to vehicle control” value came out at 1.04 in [1] (setting [11]); 1 in test [2] (setting [12]); 0.88 in test [3] (protein ERP29, HeLa); 1.2 in test [4] (HeLa, protein S100A11); 1.06 in test [5] (protein ARL1, HeLa); 1.04 in [6] (HeLa, captured protein CNBP). Moreover, the “fold changes relative to vehicle control” value is reported as 0.94 in test [7] (HeLa, captured protein TRIM25); 1.12 in [8] (HeLa, captured protein THADA); 1.04 in test [9] (HeLa, captured protein ISOC1).
With `Nc1nc2[nH]cc(CCc3ccc(C(=O)N[C@@H](CCC(=O)O)C(=O)O)cc3)c2c(=O)[nH]1` [PTX, pemetrexed], the “fold changes relative to vehicle control” value in [1] is on record as 0.21; in test [2], 0.96; in test [3], 0.96; in test [4] it was 1.29; in [5] it was 0.77; in [6], 1.14. For the same compound, the “fold changes relative to vehicle control” value in [7] was found to be 0.87; in test [8], 0.98; in [9], 0.99.
For `Nc1nc2cccc(-c3ccccc3)c2n1Cc1ccc(Cl)c(Cl)c1` [compound 3], the “fold changes relative to vehicle control” value is reported as 1.01 in [1] (captured protein PCCA, HeLa); 1.01 in test [2] (HeLa, protein APEH); 0.94 in test [3] (protein ERP29, HeLa); 1.08 fold in test [4] (setting [10]); 1.06 in test [5] (captured protein ARL1, HeLa); 0.83 in test [6] (protein CNBP, HeLa). Also, the “fold changes relative to vehicle control” value amounted to 0.97 in [7] (HeLa, protein TRIM25); 1.09 in test [8] (captured protein THADA, HeLa); 1.03 in test [9] (protein ISOC1, HeLa).

The record behind these values is paper PMC6199744, “Development of Chemical Proteomics for the Folateome and Analysis of the Kinetoplastid Folateome” (ACS Infectious Diseases, 2018).
